Source: PubChem BioAssay (NCI)
Several values for one entry are separate records, joined by “and”; a condition that tells them apart may be missing. Equal entries are not always repeated.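 The compound was tested at five concentrations on cells cultured in 96-well plates, with a 48-hour exposure period. GI50 marks 50% less growth. TGI: total growth inhibition.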

Legend:
Experiment in all cases: NCI tumour cell line growth inhibition, 48 h
[1] = tested on: 786-0 renal
[2] = tested on: A498 renal
[3] = tested on: A549 NSCLC
[4] = tested on: ACHN renal
[5] = tested on: BT-549 breast
[6] = tested on: CAKI-1 renal
[7] = tested on: CCRF-CEM leukemia
[8] = tested on: COLO 205 colon
[9] = tested on: DU-145 prostate
[10] = tested on: EKVX NSCLC
[11] = tested on: HCC-2998 colon
[12] = tested on: HCT-116 colon
[13] = tested on: HCT-15 colon
[14] = tested on: HL-60(TB) leukemia
[15] = tested on: HOP-62 NSCLC
[16] = tested on: HOP-92 NSCLC
[17] = tested on: HS 578T breast
[18] = tested on: HT29 colon
[19] = tested on: IGROV1 ovarian
[20] = tested on: K-562 leukemia
[21] = tested on: KM12 colon
[22] = tested on: LOX IMVI melanoma
[23] = tested on: M14 melanoma
[24] = tested on: MALME-3M melanoma
[25] = tested on: MCF7 breast
[26] = tested on: MDA-MB-231 breast
[27] = tested on: MDA-MB-435
[28] = tested on: MDA-N
[29] = tested on: MOLT-4 leukemia
[30] = tested on: NCI-H226 lung
[31] = tested on: NCI-H23 lung
[32] = tested on: NCI-H460 lung
[33] = tested on: NCI-H522 lung
[34] = tested on: NCI/ADR-RES ovarian
[35] = tested on: OVCAR-3 ovarian
[36] = tested on: OVCAR-4 ovarian
[37] = tested on: OVCAR-5 ovarian
[38] = tested on: OVCAR-8 ovarian
[39] = tested on: PC-3 prostate
[40] = tested on: RPMI-8226 leukemia
[41] = tested on: SF-268 CNS
[42] = tested on: SF-539 CNS
[43] = tested on: SK-MEL-2 melanoma
[44] = tested on: SK-MEL-28 melanoma
[45] = tested on: SK-MEL-5 melanoma
[46] = tested on: SK-OV-3 ovarian
[47] = tested on: SN12C renal
[48] = tested on: SNB-19 CNS
[49] = tested on: SNB-75 CNS
[50] = tested on: SR leukemia
[51] = tested on: SW-620 colon
[52] = tested on: T-47D breast
[53] = tested on: TK-10 renal
[54] = tested on: U251 CNS
[55] = tested on: UACC-257 melanoma
[56] = tested on: UACC-62 melanoma
[57] = tested on: UO-31 renal
[58] = tested on: RXF 393 renal
[59] = tested on: SF-295 CNS

## CCCNCC(O)CNc1ccc(NCC(O)CNCCC)c2c1C(=O)c1ccccc1C2=O (stereo not given)
[1]
  TGI: 8.21 µM
[2]
  TGI: 23.5 µM
[3]
  TGI: 4.64 µM
[4]
  TGI: 18.3 µM
[5]
  TGI: 6.99 µM
[6]
  TGI: 28.7 µM
[7]
  TGI: 4.35 µM
[8]
  TGI: 7.97 µM
[9]
  TGI: 20.2 µM
[10]
  TGI: 20.1 µM
[11]
  TGI: 3.21 µM
[12]
  TGI: 8.31 µM
[13]
  TGI: 75 µM
[14]
  TGI: 18.9 µM
[15]
  TGI: 8 µM
[16]
  TGI: 6.81 µM
[17]
  TGI: 16.6 µM
[18]
  TGI: 7.69 µM
[19]
  TGI: 7.87 µM
[20]
  TGI: 8.21 µM
[21]
  TGI: 17.3 µM
[22]
  TGI: 3.62 µM
[23]
  TGI: 11 µM
[24]
  TGI: 11.3 µM
[25]
  TGI: 7.5 µM
[26]
  TGI: 10.1 µM
[27]
  TGI: 10.5 µM
[28]
  TGI: 11.7 µM
[29]
  TGI: 7.6 µM
[30]
  TGI: 6.24 µM
[31]
  TGI: 12.2 µM
[32]
  TGI: 8.48 µM
[33]
  TGI: 7.81 µM
[34]
  TGI: > 75 µM
[35]
  TGI: 13.7 µM
[36]
  TGI: 10.6 µM
[37]
  TGI: 3.99 µM
[38]
  TGI: 8.51 µM
[39]
  TGI: 4.7 µM
[40]
  TGI: 6.05 µM
[41]
  TGI: 5.66 µM
[42]
  TGI: 5.11 µM
[43]
  TGI: 5.22 µM
[44]
  TGI: 9.69 µM
[45]
  TGI: 9.76 µM
[46]
  TGI: 7.78 µM
[47]
  TGI: 7.67 µM
[48]
  TGI: 6.35 µM
[49]
  TGI: 8.83 µM
[50]
  TGI: 11 µM
[51]
  TGI: 7.21 µM
[52]
  TGI: 14.6 µM
[53]
  TGI: 22.2 µM
[54]
  TGI: 9.02 µM
[55]
  TGI: 17.6 µM
[56]
  TGI: 4.95 µM
[57]
  TGI: 31.8 µM

## Cn1nc(-c2ccccc2)c2c(-c3ccccc3)c3cc(Cl)ccc3nc21
[1]
  TGI: > 100 µM
[2]
  TGI: > 100 µM
[3]
  TGI: > 100 µM
[4]
  TGI: > 100 µM
[5]
  TGI: > 100 µM
[6]
  TGI: > 100 µM
[7]
  TGI: > 100 µM
[9]
  TGI: > 100 µM
[10]
  TGI: > 100 µM
[11]
  TGI: > 100 µM
[12]
  TGI: > 100 µM
[13]
  TGI: > 22.9 µM
[14]
  TGI: > 100 µM
[15]
  TGI: > 100 µM
[16]
  TGI: > 25 µM
[17]
  TGI: > 100 µM
[18]
  TGI: > 100 µM
[19]
  TGI: > 100 µM
[20]
  TGI: > 100 µM
[21]
  TGI: > 100 µM
[22]
  TGI: > 100 µM
[23]
  TGI: > 100 µM
[24]
  TGI: > 100 µM
[25]
  TGI: > 100 µM
[26]
  TGI: > 100 µM
[27]
  TGI: > 100 µM
[28]
  TGI: > 100 µM
[29]
  TGI: > 100 µM
[30]
  TGI: > 100 µM
[31]
  TGI: > 100 µM
[32]
  TGI: > 100 µM
[33]
  TGI: > 100 µM
[34]
  TGI: > 25.7 µM
[35]
  TGI: > 100 µM
[36]
  TGI: > 100 µM
[37]
  TGI: > 100 µM
[38]
  TGI: > 100 µM
[39]
  TGI: > 100 µM
[40]
  TGI: > 100 µM
[58]
  TGI: > 100 µM
[41]
  TGI: > 100 µM
[59]
  TGI: > 100 µM
[43]
  TGI: > 100 µM
[44]
  TGI: > 100 µM
[45]
  TGI: > 100 µM
[46]
  TGI: > 100 µM
[47]
  TGI: > 100 µM
[48]
  TGI: > 100 µM
[49]
  TGI: > 100 µM
[50]
  TGI: > 100 µM
[51]
  TGI: > 100 µM
[52]
  TGI: > 100 µM
[53]
  TGI: > 100 µM
[54]
  TGI: > 100 µM
[55]
  TGI: > 100 µM
[56]
  TGI: > 100 µM
[57]
  TGI: > 100 µM

## C=C1C(=O)OC2CC1C(OC(C)=O)C/C(C)=C/CC/C(C)=C\CCC2(C)O (stereo not given)
[1]
  TGI: 10.5 µM and 19.9 µM
[2]
  TGI: 17.1 µM and 21.4 µM
[3]
  TGI: 33.2 µM and 51.1 µM
[4]
  TGI: 14.9 µM and 7.78 µM
[5]
  GI50: 4.31 µM and 2.05 µM
  TGI: 15.5 µM and 5.35 µM
[6]
  TGI: 14.2 µM and 9.91 µM
[7]
  GI50: 0.469 µM and 2.36 µM
[8]
  TGI: 14.4 µM and > 100 µM
[9]
  TGI: 14.6 µM and 23.1 µM
[10]
  TGI: 16 µM and 14 µM
[11]
  TGI: 17.5 µM and 21.1 µM
[12]
  TGI: 12.2 µM and 7.66 µM
[13]
  TGI: 13.5 µM and 3.63 µM
[14]
  TGI: 2.64 µM
[15]
  TGI: 35.4 µM and 31.7 µM
[16]
  TGI: 13.2 µM and 9.51 µM
[17]
  TGI: 25.1 µM and 26.2 µM
[18]
  GI50: 1.69 µM and 4.87 µM
  TGI: 6.44 µM and 18 µM
[19]
  GI50: 3.34 µM and 6.68 µM
  TGI: 14.5 µM and 20.1 µM
[21]
  GI50: 11.6 µM and 5.11 µM
  TGI: 32.3 µM and 19.4 µM
[23]
  TGI: > 36.9 µM and 29.6 µM
[24]
  TGI: 15 µM
[25]
  TGI: 16.2 µM and 26.3 µM
[26]
  TGI: 22.5 µM and 22.2 µM
[27]
  TGI: 18.6 µM
[28]
  TGI: 15.9 µM and 12.3 µM
[29]
  TGI: 6.23 µM and 7.81 µM
[30]
  TGI: 12.1 µM and 34.2 µM
[31]
  GI50: 7.77 µM and 1.84 µM
  TGI: 22.4 µM and 4.44 µM
[32]
  TGI: 14.1 µM and 8.22 µM
[33]
  TGI: 3.16 µM and 3.13 µM
[34]
  TGI: 15.4 µM and 17.4 µM
[35]
  TGI: 21.1 µM and 51.2 µM
[36]
  TGI: 21 µM and 19.2 µM
[37]
  TGI: 46.3 µM and 30 µM
[38]
  TGI: 14.6 µM and 12.6 µM
[39]
  GI50: 6.08 µM and 19.9 µM
  TGI: 19.6 µM and > 100 µM
[40]
  TGI: 7.9 µM and 7.55 µM
[58]
  TGI: 14 µM
[41]
  TGI: 22.9 µM and 20.3 µM
[59]
  TGI: 46.8 µM and 37 µM
[42]
  TGI: 18.4 µM and 12.7 µM
[43]
  GI50: 8.67 µM and 21.4 µM
  TGI: 22.5 µM and > 100 µM
[44]
  TGI: 11.2 µM and 15.7 µM
[45]
  GI50: 6.82 µM and 2.88 µM
  TGI: 24 µM and 10.8 µM
[46]
  TGI: 61.7 µM and 46.6 µM
[47]
  TGI: 11.3 µM and 16.6 µM
[48]
  TGI: 40.1 µM and 32 µM
[49]
  TGI: 29.7 µM and 24.3 µM
[50]
  TGI: 4.85 µM
[51]
  TGI: 12.6 µM and 8.91 µM
[52]
  TGI: 14.6 µM and 62.7 µM
[53]
  TGI: 12.4 µM and 16.1 µM
[54]
  TGI: 25.2 µM and 26.7 µM
[55]
  TGI: 18.7 µM and 12.7 µM
[56]
  GI50: 11.3 µM and 2.89 µM
  TGI: 26.1 µM and 12.9 µM
[57]
  TGI: 18.3 µM and 12.3 µM
